Where “and” joins values, the source holds several entries; their conditions need not be identical. Equal values may be shown once. Entries after “also recorded” stand apart in the source; their conditions may differ.
What was measured:
[1] = tested on: man and laboratory animals; conditions: intravenously or intramuscularly administered; cited from earlier work
patient = conditions: infusion into the cerebral ventricle; cited from earlier work
[2] = tested on: patients with chronic intractable pain; assay: Clinical test of analgesia in patients with chronic intractable pain secondary to metastatic malignancies (visual pain scale); type: in vivo, man
Experimental: Twenty-three patients with chronic intractable pain in the back, chest, abdomen, rectum and/or thigh regions secondary to metastatic malignancies were selected for this test.
The protocol was explained to them, and informed consent was obtained. Systemic analgesics were withheld for at least 5 hours before administration of β-endorphin. Neurological examinations and electroencephalography (EEG) were performed immediately before and every 2 hours after the injection of β-endorphin. The visual pain scale ("Adv. Neurol.", 1974, 4, 281-283) was explained to each patient; baseline pain intensity was determined 30 min. before the injection.
β-Endorphin acetate used here was prepared to high purity according to the method described in the Biochem. Biophys. Res. Commun., 74, 248-255 (1977). β-Endorphin acetate, 3 mg (equivalent to 2.5 mg of dried free β-endorphin) with 150 mg of glucose and 3 ml of distilled water (in 8 patients, cases 1-8) or with 3 ml of physiological saline and no glucose (in 7 patients, cases 9-15), was injected into the subarachnoid space (cases 1-14) or epidural space (case 15) of the spinal cord by lumbar puncture between the 2nd and 3rd lumbar vertebrae. After the injection of β-endorphin acetate, the intensity of pain, vital signs, central-nervous-system examination, EEG, electrocardiogram (ECG), pulse rate, respiratory rate, blood-gas analysis, and body temperature were monitored. Simple behavioural parameters were also observed.
In a single-randomization design, three physicians administered successively β-endorphin acetate injection or physiological saline (as a placebo) in random order to 5 patients (cases 9-12, 14). All other patients received only β-endorphin acetate, without placebo.
For the purpose of comparison, β-endorphin acetate was injected intramuscularly (cases 18-20), intravenously (cases 16 and 17), and intracerebrally (cases 20-23).
In this test, all the injections of β-endorphin to patients were sterilized through Millipore filter.

[3] = epidural space, 3 mg acetate in 3 ml physiological saline, case 15
[4] = intracerebral (cerebral ventricle), comparison, cases 21-23
[5] = subarachnoid space, 3 mg acetate in 3 ml physiological saline, single patients (cases 9-14)
[6] = subarachnoid space, 3 mg acetate with 150 mg glucose in 3 ml distilled water, single patients (cases 1-8)

## β-Endorphin acetate
[1]
  analgesia: no statistically significant analgesia
patient
  side effects: induces various undersirable side effects
[2]; 12 of 15 patients, subarachnoid or epidural space
  duration of drowsiness after injection: 1 to 4 h
[2]; 13 of the 15 patients, subarachnoid or epidural space
  time until pain disappeared after the injection: 1 to 5 min
[2]; all 15 patients, subarachnoid or epidural space of the spinal cord
  relief of pain reported: complete relief of pain
[2]; all the patients, subarachnoid or epidural space
  arousability: easily arousable by verbal stimuli
[2]; case No. 5 (in 40 min. after injection) and case No. 7 (in 10 min. after injection)
  duration of sleep after injection: 80 min and 110 min
[2]; during the period of pain relief
  perception of venepuncture and light touch: remained intact
[2]; during the procedure
  abnormalities in the ECG or EEG: No abnormalities
[2]; [3]
  Pain relief after β-endorphin, Duration: 68 h
  Pain relief after β-endorphin, Onset: 2 min
[2]; epidural space, 3 mg acetate in physiological saline, case 15
  Remarks: Sleep
[2]; injected into cerebral ventricle, all 3 patients
  duration of relief of pain: 8 to 12 h
[2]; [4]
  Pain relief after β-endorphin, Duration: 10 h and 12 h and 8 h
  Pain relief after β-endorphin, Onset: 3 min and 4 min
[2]; intramuscular, 2 of 3 patients
  analgesic effect: no analgesic effect
[2]; intravenous, one of 2 patients
  analgesic effect: no analgesic effect
[2]; intravenous, the other of 2 patients, considered to be placebo effect
  duration of analgesic effect: one
[2]; subarachnoid or epidural space
  duration of pain relief after the injection, average: 33.4 h
  signs of respiratory depression, arterial blood-gas changes, nausea, hypotension, hypothermia, catatonia, or muscle rigidity: No signs
[2]; subarachnoid or epidural space, all the patients
  discomfort caused by the injection: no discomfort
[2]; [5]
  Pain relief after β-endorphin, Duration: 24 h. and 25 h. and 47 h. and 731/2 and 51 h. and 221/2
  Pain relief after β-endorphin, Onset: 16 min and 2 min
[2]; subarachnoid space, 3 mg acetate in physiological saline, single patients (cases 9-14)
  Remarks: Sleep; also recorded: Euphoria; also recorded: somnolence
[2]; [6]
  Pain relief after β-endorphin, Duration: 27 h. and 271/2 and 261/2 and 291/2 and 24 h. and 36 h. and 251/2 and 281/2
  Pain relief after β-endorphin, Onset: 5 min and 4 min and 1 min and 2 min
[2]; subarachnoid space, 3 mg acetate with glucose, single patients (cases 1-8)
  Remarks: Somnolence; also recorded: Sleep; also recorded: somniloquy; also recorded: Euphoria
[2]; the other 6 of the 8 patients who slept
  duration of sleep after injection: 60 to 120 min
